Experimental data taken from ChEMBL document CHEMBL1152197, “Convergent synthesis and cruzain inhibitory activity of novel 2-(N'-benzylidenehydrazino)-4-trifluoromethyl-pyrimidines” (Bioorg Med Chem, 2008).

Key:
Cruzipain = Cruzipain (Trypanosoma cruzi, UniProt P25779); experiment: Inhibition of Trypanosoma cruzi C-terminal truncated cruzain expressed in DH5alpha Escherichia coli by well-microplate spectrophotometry
[1] = molecular target: Cruzipain (Trypanosoma cruzi) (UniProt P25779); experiment: Inhibition of Trypanosoma cruzi C-terminal truncated cruzain expressed in DH5alpha Escherichia coli at 100 uM by well-microplate spectrophotometry
Chain of Cruzipain (Trypanosoma cruzi) (P25779 123-467 limits assumed): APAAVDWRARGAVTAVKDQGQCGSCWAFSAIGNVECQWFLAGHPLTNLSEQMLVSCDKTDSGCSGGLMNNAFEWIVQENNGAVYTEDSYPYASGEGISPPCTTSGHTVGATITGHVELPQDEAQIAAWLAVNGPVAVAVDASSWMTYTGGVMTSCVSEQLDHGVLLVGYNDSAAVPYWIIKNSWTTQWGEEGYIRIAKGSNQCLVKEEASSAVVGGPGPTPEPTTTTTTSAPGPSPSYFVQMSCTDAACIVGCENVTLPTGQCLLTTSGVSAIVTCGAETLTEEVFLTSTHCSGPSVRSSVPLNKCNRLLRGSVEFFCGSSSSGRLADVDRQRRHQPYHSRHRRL

Chain of Cruzipain (P25779 whole entry, the tested form may be a part): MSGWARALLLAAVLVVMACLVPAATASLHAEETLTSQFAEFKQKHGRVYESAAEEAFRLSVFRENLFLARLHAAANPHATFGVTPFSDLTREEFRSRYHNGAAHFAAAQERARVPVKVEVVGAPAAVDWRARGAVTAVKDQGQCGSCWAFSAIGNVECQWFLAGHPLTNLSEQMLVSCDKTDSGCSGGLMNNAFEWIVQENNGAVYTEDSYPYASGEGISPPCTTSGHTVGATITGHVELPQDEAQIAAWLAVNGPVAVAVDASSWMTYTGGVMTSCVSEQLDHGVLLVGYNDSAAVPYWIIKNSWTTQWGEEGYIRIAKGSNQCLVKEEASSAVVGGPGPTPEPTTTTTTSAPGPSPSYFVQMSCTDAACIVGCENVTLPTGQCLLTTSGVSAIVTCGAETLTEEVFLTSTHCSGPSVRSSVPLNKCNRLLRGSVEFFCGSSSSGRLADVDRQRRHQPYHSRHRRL

| IC50 (Cruzipain) [µM] | inhibition [1] [%] | SMILES |
| --- | --- | --- |
| 100 | 50 | O=[N+]([O-])c1ccc(/C=N/Nc2nccc(C(F)(F)F)n2)cc1 |
| > 150 | 30 | FC(F)(F)c1ccnc(N/N=C/c2ccccc2)n1 |
| 100 | 60 | Cc1cc(C(F)(F)F)nc(N/N=C/c2ccc(Cl)cc2)n1 |
| > 100 | 45 | Cc1cc(C(F)(F)F)nc(N/N=C/c2ccccc2C)n1 |
| > 100 | 40 | COc1ccc(/C=N/Nc2nccc(C(F)(F)F)n2)cc1 |
| > 100 | 40 | Cc1ccc(/C=N/Nc2nccc(C(F)(F)F)n2)cc1 |
| 85 | 80 | FC(F)(F)c1ccnc(N/N=C/c2ccc(Cl)cc2)n1 |
| > 100 | 45 | Cc1ccccc1/C=N/Nc1nccc(C(F)(F)F)n1 |
| > 150 | 20 | COc1ccccc1/C=N/Nc1nc(C)cc(C(F)(F)F)n1 |
